Data from PubChem BioAssay AID1918954 (Molecular Pharmacology Branch, DTP, NCI, 2023).

Test system: MDA-MB-468 complex spheroids with HUVEC/MSC, viability
Experiment: Anticancer human tumor MDA-MB-468 cell line growth inhibition;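 further: spheroids exposed to agents for seven days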;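 on viability, T/C: 100% = DMSO vehicle control viability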
Conditions: for IC50: curve of first compound; for viability, T/C: stronger effect = lower value
Method in brief: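 Drug combinations with the LSD1 inhibitor iadademstat tested on tumor cells co-cultured as spheroids with endothelial cells and mesenchymal stem cells. Concentrations descended in half-log increments from clinical Cmax or 10 microM.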

[1] = second compound 0.1 µM, first compound 0.00316 µM
[2] = second compound 0.1 µM, first compound 0.01 µM
[3] = second compound 0.1 µM, first compound 0.0316 µM
[4] = second compound 0.1 µM, first compound 0.1 µM
[5] = second compound 0.1 µM, first compound 0.316 µM
[6] = second compound 0.1 µM, first compound 1 µM
[7] = second compound 0.316 µM, first compound 0.00316 µM
[8] = second compound 0.316 µM, first compound 0.01 µM
[9] = second compound 0.316 µM, first compound 0.0316 µM
[10] = second compound 0.316 µM, first compound 0.1 µM
[11] = second compound 0.316 µM, first compound 0.316 µM
[12] = second compound 0.316 µM, first compound 1 µM
[13] = second compound 1 µM, first compound 0.00316 µM
[14] = second compound 1 µM, first compound 0.01 µM
[15] = second compound 1 µM, first compound 0.0316 µM
[16] = second compound 1 µM, first compound 0.1 µM
[17] = second compound 1 µM, first compound 0.316 µM
[18] = second compound 1 µM, first compound 1 µM
[19] = second compound 3.16 µM, first compound 0.00316 µM
[20] = second compound 3.16 µM, first compound 0.01 µM
[21] = second compound 3.16 µM, first compound 0.0316 µM
[22] = second compound 3.16 µM, first compound 0.1 µM
[23] = second compound 3.16 µM, first compound 0.316 µM
[24] = second compound 3.16 µM, first compound 1 µM
[25] = second compound 10 µM, first compound 0.00316 µM
[26] = second compound 10 µM, first compound 0.01 µM
[27] = second compound 10 µM, first compound 0.0316 µM
[28] = second compound 10 µM, first compound 0.1 µM
[29] = second compound 10 µM, first compound 0.316 µM
[30] = second compound 10 µM, first compound 1 µM
[31] = second compound 0.1 µM, first compound 0.00949 µM
[32] = second compound 0.1 µM, first compound 0.03 µM
[33] = second compound 0.1 µM, first compound 0.0949 µM
[34] = second compound 0.1 µM, first compound 0.3 µM
[35] = second compound 0.316 µM, first compound 0.00949 µM
[36] = second compound 0.316 µM, first compound 0.03 µM
[37] = second compound 0.316 µM, first compound 0.0949 µM
[38] = second compound 0.316 µM, first compound 0.3 µM
[39] = second compound 1 µM, first compound 0.00949 µM
[40] = second compound 1 µM, first compound 0.03 µM
[41] = second compound 1 µM, first compound 0.0949 µM
[42] = second compound 1 µM, first compound 0.3 µM
[43] = second compound 3.16 µM, first compound 0.00949 µM
[44] = second compound 3.16 µM, first compound 0.03 µM
[45] = second compound 3.16 µM, first compound 0.0949 µM
[46] = second compound 3.16 µM, first compound 0.3 µM
[47] = second compound 10 µM, first compound 0.00949 µM
[48] = second compound 10 µM, first compound 0.03 µM
[49] = second compound 10 µM, first compound 0.0949 µM
[50] = second compound 10 µM, first compound 0.3 µM

CC1COCCN1c1cc(-c2ccnn2C)c2ccnc(-c3ccn[nH]3)c2n1 (stereo not given) + NC1CC1c1ccc(-c2cccc(O)c2)cc1
IC50 (second compound 0.1 µM): < 3.16 nM | IC50 (second compound 0.316 µM): < 3.16 nM | IC50 (second compound 1 µM): < 3.16 nM | IC50 (second compound 3.16 µM): < 3.16 nM | IC50 (second compound 10 µM): < 3.16 nM | viability, T/C [1]: 40% | viability, T/C [2]: 30.1% | viability, T/C [3]: 16.7% | viability, T/C [4]: 7.91% | viability, T/C [5]: 5.23% | viability, T/C [6]: 2.24% | viability, T/C [7]: 37.9% | viability, T/C [8]: 27.4% | viability, T/C [9]: 17% | viability, T/C [10]: 7.28% | viability, T/C [11]: 4.97% | viability, T/C [12]: 2.27% | viability, T/C [13]: 29.2% | viability, T/C [14]: 28% | viability, T/C [15]: 15.5% | viability, T/C [16]: 7.91% | viability, T/C [17]: 5.09% | viability, T/C [18]: 2.01% | viability, T/C [19]: 27.4% | viability, T/C [20]: 22.4% | viability, T/C [21]: 12.3% | viability, T/C [22]: 7.5% | viability, T/C [23]: 5.19% | viability, T/C [24]: 2.2% | viability, T/C [25]: 20.3% | viability, T/C [26]: 17.1% | viability, T/C [27]: 10.4% | viability, T/C [28]: 6.9% | viability, T/C [29]: 5.95% | viability, T/C [30]: 2.01%

CC1COCCN1c1cc(C2(S(C)(=N)=O)CC2)nc(-c2ccnc3[nH]ccc23)n1 (stereo not given) + NC1CC1c1ccc(-c2cccc(O)c2)cc1
IC50 (second compound 0.1 µM): 714 nM | IC50 (second compound 0.316 µM): 771 nM | IC50 (second compound 1 µM): 613 nM | IC50 (second compound 3.16 µM): 603 nM | IC50 (second compound 10 µM): 189 nM | viability, T/C [3]: 80% | viability, T/C [4]: 88.2% | viability, T/C [5]: 65.3% | viability, T/C [6]: 42.1% | viability, T/C (second compound 0.1 µM, first compound 3.16 µM): 22% | viability, T/C (second compound 0.1 µM, first compound 10 µM): 9.29% | viability, T/C [9]: 95.1% | viability, T/C [10]: 104% | viability, T/C [11]: 62.3% | viability, T/C [12]: 47.7% | viability, T/C (second compound 0.316 µM, first compound 3.16 µM): 20.8% | viability, T/C (second compound 0.316 µM, first compound 10 µM): 7.91% | viability, T/C [15]: 95.3% | viability, T/C [16]: 80.5% | viability, T/C [17]: 69.5% | viability, T/C [18]: 36.2% | viability, T/C (second compound 1 µM, first compound 3.16 µM): 17.8% | viability, T/C (second compound 1 µM, first compound 10 µM): 7.07% | viability, T/C [21]: 96.4% | viability, T/C [22]: 101% | viability, T/C [23]: 67.1% | viability, T/C [24]: 34.6% | viability, T/C (second compound 3.16 µM, first compound 3.16 µM): 17.9% | viability, T/C (second compound 3.16 µM, first compound 10 µM): 7.17% | viability, T/C [27]: 64.4% | viability, T/C [28]: 59.7% | viability, T/C [29]: 42% | viability, T/C [30]: 28.8% | viability, T/C (second compound 10 µM, first compound 3.16 µM): 15.8% | viability, T/C (second compound 10 µM, first compound 10 µM): 6.83%

CCN(c1cc(-c2ccc(CN3CCOCC3)cc2)cc(C(=O)NCc2c(C)cc(C)[nH]c2=O)c1C)C1CCOCC1 + NC1CC1c1ccc(-c2cccc(O)c2)cc1
IC50 (second compound 0.1 µM): 219 nM | IC50 (second compound 0.316 µM): 214 nM | IC50 (second compound 1 µM): 171 nM | IC50 (second compound 3.16 µM): 171 nM | IC50 (second compound 10 µM): 69.1 nM | viability, T/C [31]: 98.8% | viability, T/C [32]: 89.1% | viability, T/C [33]: 64.3% | viability, T/C [34]: 42.8% | viability, T/C (second compound 0.1 µM, first compound 0.949 µM): 34.9% | viability, T/C (second compound 0.1 µM, first compound 3 µM): 23% | viability, T/C [35]: 90% | viability, T/C [36]: 98.7% | viability, T/C [37]: 62.1% | viability, T/C [38]: 46.3% | viability, T/C (second compound 0.316 µM, first compound 0.949 µM): 33.7% | viability, T/C (second compound 0.316 µM, first compound 3 µM): 25.8% | viability, T/C [39]: 82.3% | viability, T/C [40]: 79% | viability, T/C [41]: 57.2% | viability, T/C [42]: 41.7% | viability, T/C (second compound 1 µM, first compound 0.949 µM): 28.6% | viability, T/C (second compound 1 µM, first compound 3 µM): 22.3% | viability, T/C [43]: 80% | viability, T/C [44]: 86.1% | viability, T/C [45]: 61.8% | viability, T/C [46]: 37.5% | viability, T/C (second compound 3.16 µM, first compound 0.949 µM): 29.3% | viability, T/C (second compound 3.16 µM, first compound 3 µM): 22.1% | viability, T/C [47]: 76.6% | viability, T/C [48]: 60.4% | viability, T/C [49]: 46.5% | viability, T/C [50]: 33.7% | viability, T/C (second compound 10 µM, first compound 0.949 µM): 29% | viability, T/C (second compound 10 µM, first compound 3 µM): 22.3%

Nc1ncn(C2CC(O)C(CO)S2)c(=O)n1 (stereo not given) + NC1CC1c1ccc(-c2cccc(O)c2)cc1
IC50 (second compound 0.1 µM): 21.2 nM | IC50 (second compound 0.316 µM): 18.9 nM | IC50 (second compound 1 µM): 11.8 nM | IC50 (second compound 3.16 µM): 10.7 nM | IC50 (second compound 10 µM): 3.83 nM | viability, T/C (second compound 0.1 µM, first compound 0.000949 µM): 104% | viability, T/C (second compound 0.1 µM, first compound 0.003 µM): 87.9% | viability, T/C [31]: 56.7% | viability, T/C [32]: 47.2% | viability, T/C [33]: 31.8% | viability, T/C [34]: 19.5% | viability, T/C (second compound 0.316 µM, first compound 0.000949 µM): 84% | viability, T/C (second compound 0.316 µM, first compound 0.003 µM): 77.1% | viability, T/C [35]: 57.8% | viability, T/C [36]: 45.1% | viability, T/C [37]: 26.3% | viability, T/C [38]: 16.4% | viability, T/C (second compound 1 µM, first compound 0.000949 µM): 80.8% | viability, T/C (second compound 1 µM, first compound 0.003 µM): 76% | viability, T/C [39]: 49.6% | viability, T/C [40]: 35.4% | viability, T/C [41]: 23.9% | viability, T/C [42]: 13.9% | viability, T/C (second compound 3.16 µM, first compound 0.000949 µM): 90.4% | viability, T/C (second compound 3.16 µM, first compound 0.003 µM): 81.3% | viability, T/C [43]: 47.7% | viability, T/C [44]: 33% | viability, T/C [45]: 22.5% | viability, T/C [46]: 13.5% | viability, T/C (second compound 10 µM, first compound 0.000949 µM): 62.5% | viability, T/C (second compound 10 µM, first compound 0.003 µM): 53.6% | viability, T/C [47]: 39.1% | viability, T/C [48]: 29.9% | viability, T/C [49]: 19.8% | viability, T/C [50]: 13.8%

O=C(C=Cn1cnc(-c2cc(C(F)(F)F)cc(C(F)(F)F)c2)n1)NNc1cnccn1 + NC1CC1c1ccc(-c2cccc(O)c2)cc1
IC50 (second compound 0.1 µM): < 3.16 nM | IC50 (second compound 0.316 µM): < 3.16 nM | IC50 (second compound 1 µM): < 3.16 nM | IC50 (second compound 3.16 µM): < 3.16 nM | IC50 (second compound 10 µM): < 3.16 nM | viability, T/C [1]: 38.1% | viability, T/C [2]: 30.3% | viability, T/C [3]: 20.7% | viability, T/C [4]: 3.44% | viability, T/C [5]: 1.7% | viability, T/C [6]: 0.86% | viability, T/C [7]: 36.9% | viability, T/C [8]: 31% | viability, T/C [9]: 19.6% | viability, T/C [10]: 3.54% | viability, T/C [11]: 1.34% | viability, T/C [12]: 0.96% | viability, T/C [13]: 38.5% | viability, T/C [14]: 28.9% | viability, T/C [15]: 18.1% | viability, T/C [16]: 3.32% | viability, T/C [17]: 1.45% | viability, T/C [18]: 0.94% | viability, T/C [19]: 33.8% | viability, T/C [20]: 34.2% | viability, T/C [21]: 19.7% | viability, T/C [22]: 3.27% | viability, T/C [23]: 1.83% | viability, T/C [24]: 1.13% | viability, T/C [25]: 31% | viability, T/C [26]: 28.9% | viability, T/C [27]: 18.3% | viability, T/C [28]: 4.7% | viability, T/C [29]: 2.04% | viability, T/C [30]: 1.62%
